Patent US7867512B2, “Cross-linked polymersomes and related encapsulating membranes” (The Trustees of the University of Pennsylvania, priority 1999, dated 2011)

Key:
[1] = Micropipette aspiration of vesicle membranes (bending and area expansion moduli, rupture); type: physicochemical; settings: vesicles formed by electroformation
Procedure: The tool that has been used to measure many of the material properties of bilayer vesicles is “micropipette aspiration” as applied in FIG. 2. In micropipette aspiration, the rheology and material properties of micron-sized objects are measured using glass pipettes. Small, micron diameter pipettes are used to pick up, deform and manipulate micron-sized objects, such as giant lipid vesicles. The aspiration pressure is controlled by manometers, in which the hydrostatic pressure in a reservoir connected to the micropipette is varied in relation to a fixed reference. Pressure may be varied with a resolution of microns of H2O (or 10^−6 atm).
A deformable object is aspirated using a pressure driving force (or suction pressure), ΔP, and the object is drawn within the pipette to a projection length LP. […] The bending modulus is measured by exerting small tensions on the membrane, to smooth out thermally-driven surface undulations. […]
Analogous to a lipid bilayer, at low but increasing aspiration pressures, the thermally undulating polymersome membrane was progressively smoothed, increasing the projected area logarithmically with tension, τ, (FIG. 3A). From the slope of this increase (in tension units of mN/m) versus the fractional change, α, in vesicle area the bending modulus, Kb, was calculated (see, e.g., Evans et al., Phys. Rev. Lett. 64:2094 (1990); Helfrich et al., Nuovo Cimento D3:137 (1984)). […]

[2] = Lipid probe incorporation and diffusivity by laser-photobleaching; type: physicochemical
Excerpt: In the same way, mixtures can be made of the copolymer amphiphiles with other synthetic or non-synthetic amphiphiles, such as, lipids or proteins. […] FIGS. 6A and 6B show the uniformity of fluorescence around an aspirated contour of membrane with 3 mol % mixed in with polymer before vesicle formation.

In the case of CCCCCCCC/C=C\CCCCCCCC(=O)O[C@H](COC(=O)CCCCCCCCCCCCCCCCC)COP(=O)([O-])OCC[N+](C)(C)C [SOPC, 1-stearoyl-2-oleoyl phosphatidylcholine], the “Ka, elastic modulus for area expansion” value [1] is reported as ~180 mN/m and the lipid probe diffusivity [2] is reported as “approximately 3×10^−8 cm^2/s”.
